{"source": "PubChem BioAssay AID1919000", "about": "(Molecular Pharmacology Branch, DTP, NCI, 2023);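 further: spheroids exposed to agents for seven days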", "tested_on": "653999-131-R-J2-PDC complex spheroids, growth % test/control", "assay": "Anticancer human tumor 653999-131-R-J2-PDC patient-derived lung adenocarcinoma cell line growth inhibition [AhR]", "conditions": "for IC50: curve of first compound; for viability, T/C: stronger effect = lower value", "excerpt": "Multicellular complex tumor spheroid response to aryl hydrocarbon receptor antagonists in combination with a variety of drugs and investigational agents in selected tumor cell lines\nThe current study was undertaken to assess response to aryl hydrocarbon receptor antagonists in combination with standard-of-care drugs and investigational agents in solid tumor complex spheroid models. Complex spheroids include a stromal component modeled by human endothelial cells (HUVEC) and fibroblasts modeled by human mesenchymal stem cells (MSCs). The concentration ranges selected for each drug and investigational agent were based upon clinically achievable concentrations if the clinical Cmax of the agent was known.\nCompounds. The drugs and investigational agents: BAY 2416964 (NSC825713), GNF351 (NSC835774), CH-223191 (NSC835775), CPI-455 (NSC825282), aza-TdCyd (NSC777586), decitabine (NSC127716), belinostat (NSC758774), entinostat (NSC756642), pevonedistat (NSC761192), tazemetostat (NSC777109), talazoparib (NSC765396), olaparib (NSC753686), selinexor (NSC780203), nedisertib (M3814, NSC802822), bortezomib (NSC756655), venetoclax (NSC766270), doxorubicin (NSC123127), elimusertib (BAY189344, NSC800525), ceralasertib (AZD6738, NSC777638), TAK-243 (NSC785004), alisertib (NSC759677), etoposide (NSC141540), topotecan (NSC609699), eribulin (NSC707389), gemcitabine (NSC613327), carboplatin (NSC241240), cisplatin (NSC119875), and SN-38 (NSC673596) were obtained from the National Cancer Institute (NCI) Developmental Therapeutics Program Chemical Repository (32). The FDA-approved anticancer drug set is available from the Developmental Therapeutics Program at https://dtp.cancer.gov/organization/dscb/obtaining/available plates.htm. […] The stock solutions were prepared in dimethyl sulfoxide (DMSO, Sigma-Aldrich, St. Louis, MO, cat. D2650), except for the platinum compounds which were prepared in saline (Quality Biological, Gaithersburg, MD, cat. 114-055-101), at 800-fold the tested concentration and stored at -70 degrees C prior to their use. All drugs and investigational agents were tested over a range starting from a high concentration at or near the clinical Cmax and decreasing in half-log increments. If the clinical Cmax for an agent had not been determined, the highest concentration tested was 10 microM (Table 1).\nCell Culture. All cells were maintained in an incubator at 37 degrees C and 5% CO2 with 95% humidity. The PDC lines were cultured according to standard operating procedures established by the NCI PDMR (https://pdmr.cancer.gov). Briefly, all PDCs were thawed and cultured in Matrigel-coated flasks prepared with a working solution of 1X Ham's F-12 nutrient mix, without supplementation (Invitrogen, Waltham, MA, cat. 11765054), 100 U/mL penicillin-streptomycin (Invitrogen, cat. 15140122), and 2.5% Matrigel (Corning Inc., Corning, NY, cat. 354248) for the first three passages. All PDCs were cultured in complete DMEM/F-12 media containing advanced DMEM/F-12 (Invitrogen, cat. 12634028), 4.9% defined fetal bovine serum, heat inactivated (HyClone Laboratories Inc., Logan, UT, cat. SH30070.03HI), 389 ng/mL hydrocortisone (Sigma-Aldrich, cat. H4001), 9.7 ng/mL human EGF recombinant protein (Invitrogen, cat. PHG0313), 23.4 microg/mL adenine (Sigma-Aldrich, cat. A2786), 97.3 U/mL penicillin-streptomycin (Invitrogen, cat. 15140122), 1.9 mM L-glutamine (Invitrogen, cat. 25030081), and 9.7 microM Y-27632 dihydrochloride (Tocris Bioscience, Bristol, United Kingdom, cat. 1254). The PDCs were cultured in complete DMEM/F12 media without 10 microM Y-27632 dihydrochloride for at least two passages prior to the screen. The established cell lines NCI-H1341 and […] were cultured in DMEM/F-12, HEPES (Invitrogen, cat. 11330032), 5% defined fetal bovine serum (HyClone Laboratories Inc., cat. SH30070.03), ITS premix universal culture supplement [insulin (5 microg/mL), transferrin (5 microg/mL), and selenious acid (5 ng/mL)] […]"}
{"smiles": "CC1COCCN1c1cc(-c2ccnn2C)c2ccnc(-c3ccn[nH]3)c2n1", "note": "(stereo not given) + Cc1ccccc1N=Nc1ccc(NC(=O)c2ccnn2C)c(C)c1", "values": [{"measurement": "IC50", "setting": "second compound 0.1 µM", "value": 168, "unit": "nM"}, {"measurement": "IC50", "setting": "second compound 0.316 µM", "value": 157, "unit": "nM"}, {"measurement": "IC50", "setting": "second compound 1 µM", "value": 193, "unit": "nM"}, {"measurement": "IC50", "setting": "second compound 3.16 µM", "value": 138, "unit": "nM"}, {"measurement": "IC50", "setting": "second compound 10 µM", "value": 233, "unit": "nM"}, {"measurement": "viability, T/C", "setting": "second compound 0.1 µM, first compound 0.00316 µM", "value": 98.7, "unit": "%"}, {"measurement": "viability, T/C", "setting": "second compound 0.1 µM, first compound 0.01 µM", "value": 101, "unit": "%"}, {"measurement": "viability, T/C", "setting": "second compound 0.1 µM, first compound 0.0316 µM", "value": 82, "unit": "%"}, {"measurement": "viability, T/C", "setting": "second compound 0.1 µM, first compound 0.1 µM", "value": 59.7, "unit": "%"}, {"measurement": "viability, T/C", "setting": "second compound 0.1 µM, first compound 0.316 µM", "value": 38.7, "unit": "%"}, {"measurement": "viability, T/C", "setting": "second compound 0.1 µM, first compound 1 µM", "value": 34.5, "unit": "%"}, {"measurement": "viability, T/C", "setting": "second compound 0.316 µM, first compound 0.00316 µM", "value": 103, "unit": "%"}, {"measurement": "viability, T/C", "setting": "second compound 0.316 µM, first compound 0.01 µM", "value": 103, "unit": "%"}, {"measurement": "viability, T/C", "setting": "second compound 0.316 µM, first compound 0.0316 µM", "value": 78.4, "unit": "%"}, {"measurement": "viability, T/C", "setting": "second compound 0.316 µM, first compound 0.1 µM", "value": 60.3, "unit": "%"}, {"measurement": "viability, T/C", "setting": "second compound 0.316 µM, first compound 0.316 µM", "value": 36.6, "unit": "%"}, {"measurement": "viability, T/C", "setting": "second compound 0.316 µM, first compound 1 µM", "value": 31.8, "unit": "%"}, {"measurement": "viability, T/C", "setting": "second compound 1 µM, first compound 0.00316 µM", "value": 102, "unit": "%"}, {"measurement": "viability, T/C", "setting": "second compound 1 µM, first compound 0.01 µM", "value": 100, "unit": "%"}, {"measurement": "viability, T/C", "setting": "second compound 1 µM, first compound 0.0316 µM", "value": 76.9, "unit": "%"}, {"measurement": "viability, T/C", "setting": "second compound 1 µM, first compound 0.1 µM", "value": 65.1, "unit": "%"}, {"measurement": "viability, T/C", "setting": "second compound 1 µM, first compound 0.316 µM", "value": 37.9, "unit": "%"}, {"measurement": "viability, T/C", "setting": "second compound 1 µM, first compound 1 µM", "value": 36.3, "unit": "%"}, {"measurement": "viability, T/C", "setting": "second compound 3.16 µM, first compound 0.00316 µM", "value": 103, "unit": "%"}, {"measurement": "viability, T/C", "setting": "second compound 3.16 µM, first compound 0.01 µM", "value": 107, "unit": "%"}, {"measurement": "viability, T/C", "setting": "second compound 3.16 µM, first compound 0.0316 µM", "value": 84.5, "unit": "%"}, {"measurement": "viability, T/C", "setting": "second compound 3.16 µM, first compound 0.1 µM", "value": 54.9, "unit": "%"}, {"measurement": "viability, T/C", "setting": "second compound 3.16 µM, first compound 0.316 µM", "value": 39.8, "unit": "%"}, {"measurement": "viability, T/C", "setting": "second compound 3.16 µM, first compound 1 µM", "value": 35.1, "unit": "%"}, {"measurement": "viability, T/C", "setting": "second compound 10 µM, first compound 0.00316 µM", "value": 89.7, "unit": "%"}, {"measurement": "viability, T/C", "setting": "second compound 10 µM, first compound 0.01 µM", "value": 89.3, "unit": "%"}, {"measurement": "viability, T/C", "setting": "second compound 10 µM, first compound 0.0316 µM", "value": 76.3, "unit": "%"}, {"measurement": "viability, T/C", "setting": "second compound 10 µM, first compound 0.1 µM", "value": 57.6, "unit": "%"}, {"measurement": "viability, T/C", "setting": "second compound 10 µM, first compound 0.316 µM", "value": 49.8, "unit": "%"}, {"measurement": "viability, T/C", "setting": "second compound 10 µM, first compound 1 µM", "value": 39.1, "unit": "%"}]}
{"smiles": "CC(C)CC(NC(=O)C(Cc1ccccc1)NC(=O)c1cnccn1)B(O)O", "note": "(stereo not given) + Cc1ccccc1N=Nc1ccc(NC(=O)c2ccnn2C)c(C)c1", "values": [{"measurement": "IC50", "setting": "second compound 0.1 µM", "value": 20.4, "unit": "nM"}, {"measurement": "IC50", "setting": "second compound 0.316 µM", "value": 20.2, "unit": "nM"}, {"measurement": "IC50", "setting": "second compound 1 µM", "value": 19.6, "unit": "nM"}, {"measurement": "IC50", "setting": "second compound 3.16 µM", "value": 20.7, "unit": "nM"}, {"measurement": "IC50", "setting": "second compound 10 µM", "value": 22.1, "unit": "nM"}, {"measurement": "viability, T/C", "setting": "second compound 0.1 µM, first compound 0.000949 µM", "value": 103, "unit": "%"}, {"measurement": "viability, T/C", "setting": "second compound 0.1 µM, first compound 0.003 µM", "value": 117, "unit": "%"}, {"measurement": "viability, T/C", "setting": "second compound 0.1 µM, first compound 0.00949 µM", "value": 82.6, "unit": "%"}, {"measurement": "viability, T/C", "setting": "second compound 0.1 µM, first compound 0.03 µM", "value": 33.1, "unit": "%"}, {"measurement": "viability, T/C", "setting": "second compound 0.1 µM, first compound 0.0949 µM", "value": 12.7, "unit": "%"}, {"measurement": "viability, T/C", "setting": "second compound 0.1 µM, first compound 0.3 µM", "value": 4.4, "unit": "%"}, {"measurement": "viability, T/C", "setting": "second compound 0.316 µM, first compound 0.000949 µM", "value": 89.7, "unit": "%"}, {"measurement": "viability, T/C", "setting": "second compound 0.316 µM, first compound 0.003 µM", "value": 116, "unit": "%"}, {"measurement": "viability, T/C", "setting": "second compound 0.316 µM, first compound 0.00949 µM", "value": 91, "unit": "%"}, {"measurement": "viability, T/C", "setting": "second compound 0.316 µM, first compound 0.03 µM", "value": 28.3, "unit": "%"}, {"measurement": "viability, T/C", "setting": "second compound 0.316 µM, first compound 0.0949 µM", "value": 10.5, "unit": "%"}, {"measurement": "viability, T/C", "setting": "second compound 0.316 µM, first compound 0.3 µM", "value": 6.14, "unit": "%"}, {"measurement": "viability, T/C", "setting": "second compound 1 µM, first compound 0.000949 µM", "value": 100, "unit": "%"}, {"measurement": "viability, T/C", "setting": "second compound 1 µM, first compound 0.003 µM", "value": 108, "unit": "%"}, {"measurement": "viability, T/C", "setting": "second compound 1 µM, first compound 0.00949 µM", "value": 87.6, "unit": "%"}, {"measurement": "viability, T/C", "setting": "second compound 1 µM, first compound 0.03 µM", "value": 27.4, "unit": "%"}, {"measurement": "viability, T/C", "setting": "second compound 1 µM, first compound 0.0949 µM", "value": 14.9, "unit": "%"}, {"measurement": "viability, T/C", "setting": "second compound 1 µM, first compound 0.3 µM", "value": 6.46, "unit": "%"}, {"measurement": "viability, T/C", "setting": "second compound 3.16 µM, first compound 0.000949 µM", "value": 97.6, "unit": "%"}, {"measurement": "viability, T/C", "setting": "second compound 3.16 µM, first compound 0.003 µM", "value": 96.8, "unit": "%"}, {"measurement": "viability, T/C", "setting": "second compound 3.16 µM, first compound 0.00949 µM", "value": 86.7, "unit": "%"}, {"measurement": "viability, T/C", "setting": "second compound 3.16 µM, first compound 0.03 µM", "value": 31.8, "unit": "%"}, {"measurement": "viability, T/C", "setting": "second compound 3.16 µM, first compound 0.0949 µM", "value": 20.8, "unit": "%"}, {"measurement": "viability, T/C", "setting": "second compound 3.16 µM, first compound 0.3 µM", "value": 7.43, "unit": "%"}, {"measurement": "viability, T/C", "setting": "second compound 10 µM, first compound 0.000949 µM", "value": 89.1, "unit": "%"}, {"measurement": "viability, T/C", "setting": "second compound 10 µM, first compound 0.003 µM", "value": 98.1, "unit": "%"}, {"measurement": "viability, T/C", "setting": "second compound 10 µM, first compound 0.00949 µM", "value": 80, "unit": "%"}, {"measurement": "viability, T/C", "setting": "second compound 10 µM, first compound 0.03 µM", "value": 37.8, "unit": "%"}, {"measurement": "viability, T/C", "setting": "second compound 10 µM, first compound 0.0949 µM", "value": 25.2, "unit": "%"}, {"measurement": "viability, T/C", "setting": "second compound 10 µM, first compound 0.3 µM", "value": 11.4, "unit": "%"}]}
